row,Compound,melting point [°C]
1,CN(C)c1ncnc2c1ncn2Cc1c(Cl)cccc1Cl,174 to 175
2,Cc1ccnc(N2CCN(CCCCC3Sc4cc(O)ccc4NC3=O)CC2)c1 (stereo unspecified),212
3,CC(C)(SC(F)(F)F)C(O)C(Oc1ccc(Cl)cc1)n1cncn1 (stereo unspecified),85 to 87
4,Cc1nc2cccc(C)n2c(=O)c1CCN1CCC(c2c[nH]c3ccccc23)CC1,225
5,C=C1C(=O)N(C)CCC1c1cccc(OC)c1 (stereo unspecified),67 to 70
6,Cc1c(Br)c2c(c(C)c1NC(=O)OC(C)(C)C)C(N1CCCC1)C(C)(C)O2 (stereo unspecified),128 to 130
7,CC(C)(C)c1cc(-c2nnc(N)o2)cc(C(C)(C)C)c1O,244 to 245
8,O=c1cnn(-c2cc(Cl)c(Cc3ccc(Cc4ccccc4)cc3)c(Cl)c2)c(=O)[nH]1,164 to 165
9,Cn1c(C(F)(F)F)cc(=O)n(-c2ccc3snc(C4OCC(CS(C)(=O)=O)O4)c3c2)c1=O (stereo unspecified),184 to 188
10,O=C(c1cc2c(cc1Cl)OCO2)N1CCOCC1,155
11,CSc1nnc(-c2ccc3ncn(-c4cccc(OC(F)(F)F)c4)c3c2)o1,149 to 150
12,CC(C)(O)[C@H](N)c1ccccc1,49
13,Oc1ccc(Nc2nc(Cl)nc(NCc3ccco3)n2)cc1,188 to 190
14,O=C(O)[C@@H](O)Cc1ccc(O)c([N+](=O)[O-])c1,111
15,Cc1ncc(N2N=C(c3ccc([N+](=O)[O-])cc3)c3cc4c(cc3CC2C)OCO4)o1 (stereo unspecified),203 to 205
16,Nc1c(Cl)cc(C(O)CNCCCCCOCCc2ccccc2)cc1C(F)(F)F (stereo unspecified),70 to 71.5
17,CCc1n[nH]c(CC)c1Oc1cc(Cl)cc(Cl)c1,114 to 115
18,COc1ccc(CN2CCC(C(O)(c3ccc(OC(F)(F)F)cc3)c3ccc(OC(F)(F)F)cc3)CC2)cc1,86 to 96
19,NC(=O)CN1C(=O)CC2Cc3c(Cl)cccc3C21 (stereo unspecified),186 to 188
20,C=CCC(C#N)(C#N)Cc1ccc(C#N)cc1,81.9
21,Cc1nc(N2CCC(Cc3ccc(OC(F)(F)F)cc3)C2=O)sc1C(=O)NCc1ccc(F)cc1 (stereo unspecified),165 to 166
22,Cc1nn(-c2cc(I)c(Cl)cc2F)c(=O)n1C(F)F,125 to 127
23,O=C(CBr)c1coc2ccccc2c1=O,140 to 145

row,Compound,melting point [°C]
1,CC(C)(C)c1cc(-n2nc3ccc(Sc4ccc5nn(-c6cc(C(C)(C)C)cc(C(C)(C)C)c6O)nc5c4)cc3n2)c(O)c(C(C)(C)C)c1,245 to 246
2,CCNC(=O)N1CCN(c2ccccc2C(C)(C)C)CC1,196 to 198
3,O=C1Nc2ccc(-c3cccc(Cl)c3)cc2C12OCCCO2,242 to 244
4,CSc1c(C(=O)O)ccc(C)c1C,118 to 120
5,CCn1c2c(nc(-c3ccc(Cl)cc3)c1=O)CCCC2,110 to 113
6,CS(=O)(=O)Nc1ccccc1SC1CCCCC1,50 to 51
7,CC(C)N(C(=O)C(Cc1ccc(C=O)cc1)NC(=O)OC(C)(C)C)C(C)C (stereo unspecified),152
8,CCOC(=O)C1=C(O)C(=O)NCC1,142 to 148
9,C=CCOC(=O)c1ccc(NCCCCCCCCCCCCCCCC)cc1,81 to 83
10,CC(C)(C#N)NC(=O)Sc1ccccc1,152 to 155
11,S=C(NCCCN1CCCC1)NCCCN(Cc1ccc(Cl)c(Cl)c1)c1ccc(Br)cn1,122 to 124
12,O=C(Cn1c2c(c(=O)n3nc(-c4ccccc4)cc13)CN(C1CCCCC1)C2=O)c1ccccc1,164 to 167
13,COc1ccc(C=O)cc1OCC(F)F,66 to 68
14,COc1ccc2c(O)n[nH]c2c1OC,175
15,O=C(N[C@H]1CCCNC1=O)c1ccc(C(F)(F)F)cc1,212 to 214
16,O=c1cc(-c2ccncc2)nc2n1CCOCC2,156 to 159
17,BrCC=C1c2ccccc2C=Cc2ccccc21,87.5 to 89.5
18,CC12CCC(=O)C(CSc3ccccc3)=C1CCC1C2CCC2(C)C1C=CC2(C)O (stereo unspecified),147
19,N#CC(=Cc1ccccc1F)C(O)C#N (stereo unspecified),122
20,NN=C1C(=O)Nc2cccc(Cl)c21,235 to 236
21,CN(C)C1(c2ccccc2)CCC(c2c[nH]c3ncccc23)CC1 (stereo unspecified),130 to 133
22,CC(C)OCc1c(S(C)(=O)=O)ccc(Br)c1Cl,87 to 91
23,CCc1nnc(-c2cn3c(C)c(CC)c(OC)nc3n2)o1,170 to 172

row,Compound,melting point [°C]
1,COC(=O)CCCCc1ccc(CN2CCN(c3ccncc3)CC2)cc1,53 to 54
2,CCOC(=O)C(C(=O)OCC)=C1CN(C)C(=O)c2ccccc2N1,139
3,Cc1oc(=O)c(Nc2ccccc2F)nc1Cl,126 to 129
4,Nc1ccc(C(=O)c2nccs2)cc1[N+](=O)[O-],179 to 181
5,CCCOC(=O)Cc1ccc(N[C@@H](CCC(N)=O)C(=O)O)cc1,178 to 179
6,CCOC(=O)N1CCN(c2ccc(OC[C@H]3CCn4cc([N+](=O)[O-])nc4O3)cc2)CC1,218
7,C[C@@H]1C(=O)C[C@H]2C[C@@H]1OO[C@@]2(C)/C=C\c1ccc(F)cc1,84
8,CCN1c2ncc(CCc3ccnc(C)c3)cc2C(=O)N(C)c2ccc(Cl)nc21,94 to 96
9,O=C1c2ccccc2-c2[nH]c(=O)c(=O)[nH]c21,243 to 253
10,CC1(Cc2ccc(O)cc2)OCCO1,61 to 64
11,O=C(Nc1ccc(-n2nc(C(F)(F)F)cc2C(F)(F)F)cn1)c1ccccc1F,153 to 155
12,CSc1ccc(CN(C2CCOCC2)S(=O)(=O)c2ccc(Cl)cc2)cc1,124 to 127
13,CCC(Br)=C(CC)S(=O)(=O)CBr,96 to 97
14,c1cc(COc2ccc(OCc3ccc4ccccc4n3)cc2)cc(OCc2nnn[nH]2)c1,131 to 132
15,CC(C)(C)C1CCC(C2=C(O)C(=O)c3ccccc3C2=O)CC1 (stereo unspecified),123 to 126
16,NCCNC(=O)CC(CO)c1c(Cl)cccc1Cl (stereo unspecified),127 to 129
17,O=C(O)c1cc(F)c(F)cc1NC1CC1,175 to 176
18,O=C1NC(=O)C(Cc2ccc(OCc3nc4cccnc4n3Cc3ccc(Cl)cc3)cc2)S1 (stereo unspecified),211 to 213
19,O=C1CCC(c2ccccc2)(c2ccccc2)CN1,177 to 180
20,CN1C(=O)c2cscc2Nc2ccccc21,195 to 198
21,CCn1ncc2c3noc(C)c3cnc21,181 to 182

# Results, then the compound that gave them:
row,melting point [°C],Compound
1,185 to 186,O=C(NCCO)/C(=C/c1ccc(C(F)(F)F)c(F)c1)NC(=O)c1ccc(OCCC(F)(F)F)cc1
2,245 to 246,CCOC(=O)c1sc(Oc2ccc(O)cc2)c2c1CCc1cnn(C)c1-2
3,144,Cc1ccc(-c2cn3ccc(Cl)cc3n2)cc1C
4,204 to 205,Cc1nnc(-c2ccc3occ(-c4cccc(C#N)c4)c3c2)o1
5,102 to 110,O=C(O)Cc1ccc(OCCNC(=O)C2Cc3ccccc3N2S(=O)(=O)c2ccc(-c3ccc(F)cc3)cc2)c(Cl)c1 (stereo unspecified)
6,108,Cc1ccc2oc(OCC(=O)N(c3ccccc3)C(C)C)nc2c1
7,156 to 159,CCCCCN1C(=O)C(CCC(=O)OCC)(NC(=O)c2ccc3ccccc3c2)c2ccc(OC)cc21 (stereo unspecified)
8,57,CC(=O)Oc1cc(COC(=O)c2ccccc2)cnc1C
9,248 to 249,CC(C)n1nc(-c2sc(NC(=O)c3c(Cl)cccc3Cl)nc2-c2ccccc2)ccc1=O
10,126 to 128,COC(=O)CCNC(=O)COc1ccc2c(c1)CC(NS(=O)(=O)c1ccc(Cl)cc1)C2 (stereo unspecified)
11,219 to 221,O=C(Nc1ccc(C(=O)N2Cc3ccccc3Cc3ccccc32)cc1)c1ccccc1
12,188 to 189,COc1ccc(C(=O)Nc2cc(C)cc(C)c2)cc1NC(=S)Nc1cccc(C)c1
13,162,CN(C)C(=O)Nc1ccc(OCc2nc(Cl)ccc2Cl)cc1
14,181 to 182,COc1cc2ncnc(Nc3cccc(C)c3)c2c(N)c1OC
15,118 to 119,CC1(c2ccccc2)SC(=S)N(Nc2ccccc2)C1=N (stereo unspecified)
16,130 to 134,Cc1cc(Nc2cccc(C(F)(F)F)c2)nc(-n2nc(C)cc2C)n1
17,181 to 182,O=C1N(Cc2cccc(Cl)n2)c2ccccc2C12COc1cc3c(cc12)OCCO3 (stereo unspecified)

row,melting point [°C],Compound
1,200 to 202,CCOC1=C(C#N)C(c2ccccc2)=C2C(=O)N(CC)C(c3ccccc3)=C12
2,111,COC(=O)Cn1ccc2ccc(-c3nccc(-c4ccccc4)n3)cc21
3,164 to 165,CCN(CC)Cc1cc(Nc2snc3ccccc23)ccc1O
4,170 to 172,CC(=O)NC(Cc1ccc(CC(=O)OC(C)(C)C)cc1)C(=O)OCc1ccccc1 (stereo unspecified)
5,267 to 269,CC(=O)Nc1ccc(C2=NN(c3nnc(C)s3)[C@H](C)Cc3cc4c(cc32)OCO4)cc1C
6,202 to 204,CC(C)C(=O)c1cn(Cc2c(F)cccc2F)c2sc(-c3ccc([N+](=O)[O-])cc3)c(CBr)c2c1=O
7,75 to 78,Cc1cc(C(=O)NC(C)CN(C)CC(C)NC(=O)c2cc(C)cc3nc4ccccc4nc23)c2nc3ccccc3nc2c1 (stereo unspecified)
8,145 to 147,CNC(=O)N(C(=O)Nc1ccccc1)c1ccccc1
9,122,COC(=O)c1ccc(C2=N[C@H]3CCCC[C@H]3c3cc(OC)c(OC)cc32)cc1 (racemic)
10,233 to 235,CC(C)(C)c1ccc(-c2nnc(-c3ccc(C(=O)O)cc3[N+](=O)[O-])o2)cc1
11,227 to 228,COc1ccc2c(c1)C(=O)c1c-2c(Cl)nc2ccccc12
12,280 to 284,O=C(Nc1ccc(C(=O)N2CCc3cn[nH]c3-c3sccc32)cc1)c1ccccc1-c1ccccc1
13,174 to 175,CC1(c2ccccc2)C(=O)Nc2cc(Cl)ccc2C1=O (stereo unspecified)
14,223,Cc1ccc2c(c1)C=Cc1cc(C)ccc1C2c1cn(-c2ccnc(NCC(=O)Nc3nc(CC(=O)O)cs3)n2)c(=O)[nH]c1=O
15,92 to 96,CC(=O)Nc1cccc2c(-c3ccc(=O)n(C(C)C)n3)c(-c3ccccc3)nn12
16,86 to 88,CCCCc1c(C(=O)OCC)cc(OC(C)=O)c2c(OC)cccc12
17,194 to 195,O=C1c2ccc(C#Cc3ccccc3)cc2C(=O)N1c1ccc2c(c1)C=C2
